Patent US20220098203A1 (priority 2018, published 2022)
Where two headings read alike, the source gives them in different places.

Tests used:
MAT2A homodimer = molecular target: T1, MAT2A homodimer (Homo sapiens, UniProt P31153); experiment: MAT2A biochemical assay (liberated phosphate, PiColorLock Gold); conditions: Table 5a; MAT2A biochemical assay; read-out: Enzyme Inhibition
T1 construct: inferred from the Ni sepharose purification and imidazole elution; made in house; host or cells: SF9 insect cells, recombinant baculovirus (Bac to Bac, pFASTBAC1)
T1 sequence (P31153 whole entry): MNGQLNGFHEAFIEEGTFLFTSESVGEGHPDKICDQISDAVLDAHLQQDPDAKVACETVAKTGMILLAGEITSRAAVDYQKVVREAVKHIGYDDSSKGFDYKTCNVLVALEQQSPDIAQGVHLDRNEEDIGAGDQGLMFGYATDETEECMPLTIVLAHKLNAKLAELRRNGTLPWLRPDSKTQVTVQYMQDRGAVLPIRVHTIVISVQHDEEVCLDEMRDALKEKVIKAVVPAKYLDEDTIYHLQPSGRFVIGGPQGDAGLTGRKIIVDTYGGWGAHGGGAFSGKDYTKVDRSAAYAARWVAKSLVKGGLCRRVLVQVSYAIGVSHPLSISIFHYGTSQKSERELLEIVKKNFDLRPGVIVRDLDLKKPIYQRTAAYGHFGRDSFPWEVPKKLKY
Outline: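 Baculovirus/Sf9-expressed, Ni-purified MAT2A homodimer preincubated with compound 60 min at 25 °C, then reacted 60 min at 25 °C with substrate mix of 500 μM ATP and 400 μM L-methionine, pH 7.0 (mix, not final levels). Phosphate released with SAM measured by PiColorLock Gold against phosphate standard curve.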

[1] = system: SAM in HCT116 MTAP-deleted cells; experiment: Cellular assay of target engagement (SAM), LC-MS/MS; format: cell-based, human; conditions: 72 h, read-out: Cell 72 h SAM Inhibition (MTAP −/−)
Outline: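 HCT116 cells with MTAP deleted were treated with compound for 72 h at 37°C/5% CO2. After quenching lysis in cold 80% methanol with 1 M acetic acid, SAM was quantified by LC-MS/MS against a d3-SAM internal standard.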

HCT116 MTAP-/- = experiment: Inhibition of cellular proliferation (Cell Titer Glo), HCT116 MTAP-/-; format: cell-based, human; conditions: 4 days, read-out: 4 Day Relative Growth Inhibition (MTAP −/−)
Outline: (§1)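 Isogenic HCT116 MTAP+/+ and MTAP−/− cells were plated, treated with MAT2A inhibitor after 24 h, and incubated 4 days at 37 °C. Proliferation was read by CellTiter-Glo ATP luminescence, blank-subtracted and normalized to 0.2% DMSO control.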

HCT116 MTAP+/+ = experiment: Inhibition of cellular proliferation (Cell Titer Glo), HCT116 MTAP+/+; format: cell-based; conditions: Homo sapiens, HCT-116, 96 h, Table 5a, 4 days, read-out: 4 Day Relative Growth Inhibition (MTAP +/+)
Outline: as §1

[2] = Homo sapiens, HCT-116, Table 5a
[3] = Homo sapiens, HCT-116, 96 h, Table 5a
[4] = Table 6, select pairs of compounds

IC50 (MAT2A homodimer)	IC50 [1, 2]	IC50 (HCT116 MTAP-/-; [3])	IC50 (HCT116 MTAP+/+)	IC50 [1, 4]	IC50 (HCT116 MTAP-/-; [4])	Structure (SMILES)
< 100 nM	100 to 1000 nM	> 1000 nM	> 1000 nM	–	–	Cn1cc2cc(N3Cc4cnc(NCC(F)(F)F)cc4N(c4ccc(OC(F)F)cc4)C3=O)ccc2n1 [Example 268]
< 100 nM	100 to 1000 nM	100 to 1000 nM	> 1000 nM	100 to 1000 nM	100 to 1000 nM	CCNc1ccc2c(n1)N(c1ccc(OC(F)F)cc1)C(=O)N(c1ccc3nn(C)cc3c1)C2 [Example 269]
< 100 nM	< 100 nM	100 to 1000 nM	> 1000 nM	–	–	Cn1cc2cc(N3Cc4ccc(OCC(F)(F)F)nc4N(c4ccc(OC(F)F)cc4)C3=O)ccc2n1 [Example 270]
< 100 nM	< 100 nM	< 100 nM	< 100 nM	< 100 nM	< 100 nM	Cn1cnc2ccc(N3Cc4ccc(NCC(F)(F)F)nc4N(c4ccc(OC(F)F)cc4)C3=O)cc21 [Example 271]
< 100 nM	< 100 nM	100 to 1000 nM	> 1000 nM	–	–	CCOc1ccc2c(n1)N(c1ccc(OC(F)F)cc1)C(=O)N(c1ccc3ncn(C)c3c1)C2 [Example 272]
< 100 nM	100 to 1000 nM	100 to 1000 nM	> 1000 nM	–	–	Cn1cnc2ccc(N3Cc4ccc(OCC(F)(F)F)nc4N(c4ccc(OC(F)F)cc4)C3=O)cc21 [Example 273]
< 100 nM	< 100 nM	< 100 nM	> 1000 nM	< 100 nM	< 100 nM	CCNc1ccc2c(n1)N(c1ccc(OC(F)F)cc1)C(=O)N(c1ccc3ncn(C)c3c1)C2 [Example 274]
< 100 nM	100 to 1000 nM	100 to 1000 nM	100 to 1000 nM	–	–	CCOc1ccc2c(n1)N(c1ccc(OC(F)F)nc1)C(=O)N(c1ccc3nn(C)cc3c1)C2 [Example 275]
< 100 nM	< 100 nM	< 100 nM	> 1000 nM	–	–	CCOc1ccc2c(n1)N(c1ccc(CF)nc1)C(=O)N(c1ccc3nn(C)cc3c1)C2 [Example 282, 7-ethoxy-1-(6-(fluoromethyl)pyridin-3-yl)-3-(2-methyl-2H-indazol-5-yl)-3,4-dihydropyrido[2,3-d]pyrimidin-2(1H)-one]
< 100 nM	100 to 1000 nM	100 to 1000 nM	100 to 1000 nM	–	–	Cn1cc2cc(N3Cc4ccc(OCC(F)F)nc4N(c4ccc5ocnc5c4)C3=O)ccc2n1 [Example 283, 1-(benzo[d]oxazol-5-yl)-7-(2,2-difluoroethoxy)-3-(2-methyl-2H-indazol-5-yl)-3,4-dihydropyrido[2,3-d]pyrimidin-2(1H)-one]
< 100 nM	100 to 1000 nM	100 to 1000 nM	> 1000 nM	–	–	Cn1cc2cc(N3Cc4cc(F)c(OCC(F)F)cc4N(c4ccc(OC(F)F)cc4)C3=O)ccc2n1 [Example 285, 7-(2,2-difluoroethoxy)-1-(4-(difluoromethoxy)phenyl)-6-fluoro-3-(2-methyl-2H-indazol-5-yl)-3,4-dihydroquinazolin-2(1H)-one]
< 100 nM	100 to 1000 nM	100 to 1000 nM	100 to 1000 nM	–	–	CCOc1ccc2c(c1)N(c1ccc(OC(F)F)cc1)C(=O)N(c1ccc3nn(C)cc3c1)C2 [Example 287, 1-[4-(difluoromethoxy)phenyl]-7-ethoxy-3-(2-methyl-2H-indazol-5-yl)-1,2,3,4-tetrahydroquinazolin-2-one]
< 100 nM	100 to 1000 nM	100 to 1000 nM	> 1000 nM	–	–	Cn1cc2cc(N3Cc4ccc(NCC(F)(F)F)cc4N(c4ccc(OC(F)F)cc4)C3=O)ccc2n1 [Example 288]
100 to 1000 nM	> 1000 nM	> 1000 nM	> 1000 nM	–	–	CCOc1cnc2c(c1)N(c1ccc(OC(F)F)cc1)C(=O)N(c1ccc(OC)cc1)C2 [Example 289, 1-(4-(difluoromethoxy)phenyl)-7-ethoxy-3-(4-methoxyphenyl)-3,4-dihydropyrido[3,2-d]pyrimidin-2(1H)-one]
< 100 nM	100 to 1000 nM	100 to 1000 nM	> 1000 nM	–	–	CCOc1cnc2c(c1)N(c1ccc(OC(F)F)cc1)C(=O)N(c1ccc3nn(C)cc3c1)C2 [Example 290]
100 to 1000 nM	100 to 1000 nM	> 1000 nM	> 1000 nM	–	–	CCOc1cnc2c(c1)N(c1ccc(Cl)cc1)C(=O)N(c1ccc3nn(C)cc3c1)C2 [Example 291]
< 100 nM	< 100 nM	< 100 nM	> 1000 nM	–	–	CCCc1ccc2c(n1)N(c1ccc(OC)cc1)C(=O)N(c1ccc3nn(C)cc3c1)C2 [Example 294, 1-(4-methoxyphenyl)-3-(2-methyl-2H-indazol-5-yl)-7-propyl-3,4-dihydropyrido[2,3-d]pyrimidin-2(1H)-one]
< 100 nM	< 100 nM	100 to 1000 nM	> 1000 nM	–	–	Cn1cc2cc(N3Cc4ccc(OCC(F)F)nc4N(c4ccc(O)cc4)C3=O)ccc2n1 [Example 295, 7-(2,2-difluoroethoxy)-1-(4-hydroxyphenyl)-3-(2-methyl-2H-indazol-5-yl)-3,4-dihydropyrido[2,3-d]pyrimidin-2(1H)-one]
< 100 nM	< 100 nM	< 100 nM	> 1000 nM	–	–	[2H]C([2H])([2H])Oc1ccc(N2C(=O)N(c3ccc4nc(C)n(C)c4c3)Cc3ccc(OCC(F)F)nc32)cc1 [Example 401, 7-(2,2-difluoroethoxy)-3-(1,2-dimethyl-1H-benzo[d]imidazol-6-yl)-1-(4-(methoxy-d3)phenyl)-3,4-dihydropyrido[2,3-d]pyrimidin-2(1H)-one]
< 100 nM	< 100 nM	< 100 nM	100 to 1000 nM	–	–	[2H]C([2H])([2H])Oc1ccc(N2C(=O)N(c3ccc4nc(C)n(C)c4c3)Cc3cnc(NCC(F)(F)F)nc32)cc1 [Example 402, 3-(1,2-dimethyl-1H-benzo[d]imidazol-6-yl)-1-(4-(methoxy-d3)phenyl)-7-((2,2,2-trifluoroethyl)amino)-3,4-dihydropyrimido[4,5-d]pyrimidin-2(1H)-one]
< 100 nM	< 100 nM	100 to 1000 nM	> 1000 nM	–	–	Cn1cc2cc(N3Cc4ccc(OCC(F)F)nc4N(c4ccc5c(c4)ncn5C)C3=O)ccc2n1 [Example 403, 7-(2,2-difluoroethoxy)-1-(1-methyl-1H-benzo[d]imidazol-5-yl)-3-(2-methyl-2H-indazol-5-yl)-3,4-dihydropyrido[2,3-d]pyrimidin-2(1H)-one]
< 100 nM	100 to 1000 nM	100 to 1000 nM	> 1000 nM	–	–	Cn1cc2cc(N3Cc4ccc(OCC(F)F)nc4N(c4ccc5[nH]cnc5c4)C3=O)ccc2n1 [Example 404, 1-(1H-benzo[d]imidazol-5-yl)-7-(2,2-difluoroethoxy)-3-(2-methyl-2H-indazol-5-yl)-3,4-dihydropyrido[2,3-d]pyrimidin-2(1H)-one]
< 100 nM	< 100 nM	100 to 1000 nM	> 1000 nM	–	–	Cn1cc2cc(N3Cc4ccc(OCC(F)F)nc4N(c4ccc5[nH]ncc5c4)C3=O)ccc2n1 [Example 405, 7-(2,2-difluoroethoxy)-1-(1H-indazol-5-yl)-3-(2-methyl-2H-indazol-5-yl)-3,4-dihydropyrido[2,3-d]pyrimidin-2(1H)-one]
< 100 nM	100 to 1000 nM	100 to 1000 nM	> 1000 nM	–	–	COc1ccc(N2Cc3ccc(NCC(F)(F)F)nc3N(c3ccc(OC(F)F)cc3)C2=O)cc1 [Example 406, 1-(4-(difluoromethoxy)phenyl)-3-(4-methoxyphenyl)-7-((2,2,2-trifluoroethyl)amino)-3,4-dihydropyrido[2,3-d]pyrimidin-2(1H)-one]
100 to 1000 nM	> 1000 nM	> 1000 nM	> 1000 nM	–	–	COc1ccc(N2Cc3ccc(NCC(F)(F)F)nc3N(c3ccc(Cl)cc3)C2=O)cc1 [Example 407, 1-(4-chlorophenyl)-3-(4-methoxyphenyl)-7-((2,2,2-trifluoroethyl)amino)-3,4-dihydropyrido[2,3-d]pyrimidin-2(1H)-one]
< 100 nM	< 100 nM	100 to 1000 nM	> 1000 nM	–	–	O=C1N(c2ccc3ncsc3c2)Cc2ccc(OCC(F)F)nc2N1c1ccc(OC(F)F)cc1 [Example 408, 3-(benzo[d]thiazol-6-yl)-7-(2,2-difluoroethoxy)-1-(4-(difluoromethoxy)phenyl)-3,4-dihydropyrido[2,3-d]pyrimidin-2(1H)-one]
< 100 nM	< 100 nM	< 100 nM	100 to 1000 nM	–	–	O=C1N(c2ccc3ncsc3c2)Cc2ccc(OCC(F)F)nc2N1c1ccc(Br)cc1 [Example 409, 3-(benzo[d]thiazol-6-yl)-1-(4-bromophenyl)-7-(2,2-difluoroethoxy)-3,4-dihydropyrido[2,3-d]pyrimidin-2(1H)-one]
